# Assay results as given in the NIST ThermoML archive (doi:10.1021/je800021r).
# “And” between values parts separate entries of the source, which are not always exact repeats. Equal entries are not always repeated. Numbers after ± are expanded uncertainties.
# Settings: Liquid, Ebulliometric method (Recirculating still)
vapor or sublimation pressure (364.51 K),vapor or sublimation pressure (364.5 K) [kPa],vapor or sublimation pressure (364.52 K) [kPa],Structure (SMILES)
74.1 ± 1.4 kPa,,,CCC(C)O (configuration not stated) [butan-2-ol]
144.2 ± 1.5 kPa,,,CC(C)O [propan-2-ol]
1686.4 ± 7.4 kPa and 1686.3 ± 7.4 kPa,1685.6 ± 7.4,1686.3 ± 7.4,CC(C)C [2-methylpropane]
,142.6 ± 1.5,,CC(C)(C)O [2-methylpropan-2-ol]
267.5 ± 1.8 kPa,,,CO [methanol]
